In patent publication US11034960B2, “PKLR inhibition in the treatment of NAFLD and HCC” (ScandiEdge Therapeutics AB, priority 2017, dated 2021):

Key:
K562 cells [1] = assay: RT-PCR gene expression in K562 cells after interference by C75 or PKLR-specific siRNA for 24 hours; format: cell-based, human; conditions: C75 at different concentrations (0, 40, 60 μM), FIG. 2A
Description: (§1) RNA was isolated for RT-PCR after interference for 24 hours; GAPDH was set as the internal reference. Cell counting was performed after interference for 72 hours. Data are presented as the means±standard errors of five independent experiments. Comparisons were performed by one-way ANOVA. Samples without any interference were assigned as controls. * represents a significant difference compared with the value in the control group (P<0.05).
(§2) For subsequent experiments, K562 and HepG2, human immortalized myelogenous leukemia and hepatic cell lines, respectively, were selected. Both cell lines were cultured in RPMI-1640 medium (R2405, Sigma-Aldrich) supplemented with 10% fetal bovine serum (FBS, F2442, Sigma Aldrich) and incubated in 5% CO2 humidity at 37° C. […]
(§3) Total RNA was isolated with TRIzol reagent (15596026, Thermo Fisher Scientific) after treatment with C75 or siRNA for 24 hours. The expression profiles of key genes (FASN, PKLR in K562/HepG2, and PNPLA3, PCSK9 only in HepG2 cells) in the co-expression network were measured and analyzed via quantitative real-time PCR with iTaq Universal SYBR Green One-Step Kit (1725151, Bio-Rad), using anchored oligo (dT) primer based on CFX96™ detection system (Bio-Rad). […] Variation in cell proliferation was detected with a Cell Counting Kit-8 (CCK-8, CK04, Dojindo) after interference by C75/siRNA for 72 hours. […]

HepG2 cells [2] = assay: RT-PCR gene expression in HepG2 cells after interference by C75 or PKLR-specific siRNA for 24 hours; format: cell-based, human; conditions: C75 (0, 40, 60 μM), FIG. 2C
Description: as §1
For subsequent experiments, K562 and HepG2, human immortalized myelogenous leukemia and hepatic cell lines, respectively, were selected. Both cell lines were cultured in RPMI-1640 medium (R2405, Sigma-Aldrich) supplemented with 10% fetal bovine serum (FBS, F2442, Sigma Aldrich) and incubated in 5% CO2 humidity at 37° C.
To confirm the speculated CN, chemical inhibitors and RNA interference (RNAi) assays were chosen to interfere with the immortalized cell lines (including K562 and HepG2) and the subsequent candidate gene expression and cell growth patterns were observed. More specifically, the experimental protocol was as follows: (1) C75 (C5490, Sigma-Aldrich), as a well-known fatty acid synthase [FAS] inhibitor, was added to cells at 80% confluence with a final concentration of 20, 40, 60, or 80 μM (taking cells without C75 interference as the control); (2) cells at 80% confluence were separately transfected with […] of Silencer® pre-designed PKLR-targeted siRNAs (clone ID: 53 (SEQ ID NO:2 and SEQ ID NO:3), 54 (SEQ ID NO:2 and SEQ ID NO:5), Life Technologies) at 15 nM by using Lipofectamine® RNAiMAX (13778075, Life Technologies). Cells incubated in medium with non-target negative control siRNA at 15 nM (4390843, Life Technologies) were assigned as the control.
Total RNA was isolated with TRIzol reagent (15596026, Thermo Fisher Scientific) after treatment with C75 or siRNA for 24 hours. The expression profiles of key genes (FASN, PKLR in K562/HepG2, and PNPLA3, PCSK9 only in HepG2 cells) in the co-expression network were measured and analyzed via quantitative real-time PCR with iTaq Universal SYBR Green One-Step Kit (1725151, Bio-Rad), using anchored oligo (dT) primer based on CFX96™ detection system (Bio-Rad). GAPDH was set as the internal control for normalization. The primer sequences were SEQ ID NO:9 (FASN forward), SEQ ID NO:10 (FASN reverse), SEQ ID NO:11 (PKLR forward), SEQ ID NO:12 (PKLR reverse), SEQ ID NO:13 (PNPLA3 forward), SEQ ID NO:14 (PNPLA3 reverse), SEQ ID NO:15 (PCSK9 forward), SEQ ID NO:16 (PCSK9 reverse), SEQ ID NO:17 (GAPDH forward) and SEQ ID NO:18 (GAPDH reverse). Variation in cell proliferation was detected with a Cell Counting Kit-8 (CCK-8, CK04, Dojindo) after interference by C75/siRNA for 72 hours. […]

HepG2 cells [3] = assay: Cell growth of HepG2 cells (Cell Counting Kit-8) after interference for 72 hours; format: cell-based, human; conditions: different concentrations of C75 (0, 20, 40, 60, 80 μM), FIG. 2D
Description: as §1, §2, §3

[4] = tested on: primary human hepatocytes; assay: mRNA expression in primary human hepatocytes treated with C75 (TaqMan real-time PCR); format: cell-based; conditions: 40 μg/ml C75, 4, 6, 8 or 24 hours, FIG. 3F
Description: Human primary hepatocytes were purchased from Biopredic International. Twenty-four hours after arrival (48 hours after isolation), human hepatocytes were treated with 40 μg/ml of C75 or dimethyl sulfoxide (DMSO) for 4, 6, 8 or 24 hours.
Total RNA was isolated from human hepatocytes and snap-frozen mouse liver with an RNeasy Mini Kit (Qiagen). cDNA was synthesized with a high-capacity cDNA Reverse Transcription Kit (Applied Biosystems) and random primers. The mRNA expression levels of genes of interest were analyzed via TaqMan real-time PCR in a ViiATM7 System (Applied Biosystems). The TaqMan Gene Expression assays used were Mm01263610_m1 (for mouse Pcsk9), Mm00662319_m1 (mouse Fasn), Mm00443090_m1 (mouse Pklr), Mm00504420_m1 (mouse Pnpla3), Mm01282499_m1 (mouse Hmgcr), Hs00545399_m1 (human PCSK9), Hs01005622_m1 (human FASN), Hs00176075_m1 (human PKLR), Hs00228747_m1 (human PNPLA3), and Hs00168352_m1 (human HMGCR) (all from Applied Biosystems). Hprt (mouse Mm03024075_m1) and GADPH (human Hs02758991_g1) (Applied Biosystems) were used as internal controls.

K562 cells [5] = assay: Cell growth of K562 cells (Cell Counting Kit-8) after interference for 72 hours; format: cell-based, human; conditions: C75 (0, 20, 40, 60, 80 μM), FIG. 2B
Description: as §1, §2, §3

HepG2 cells [6] = assay: Lipidomics measurement of triglycerides in HepG2 cells with PKLR downregulation; format: cell-based, human
Description: To better clarify the genetic impact of PKLR on lipid deposition, cells were treated by siRNA and then tested by mass spectrometer for lipidomics data, sequentially. To be specific, HepG2 cells were transfected by siRNA (Assay ID: 53 with target on PKLR, applied by aforementioned method) for 72 hours and then harvested for lipidomics measurement. Correspondingly, cells treated with non-targeting siRNA (4390843, Thermo Fisher Scientific, USA) were assigned as control.
For lipidomics measurement, cells were extracted using butanol/methanol (BUME) as previously described (Lofgren et al., 2012). Internal standards (either deuterated or containing heptadecanoyl (C17:0) fatty acids) were added during the extraction. Analysis of triacylglycerols and phosphatidylcholines were made using direct infusion on a QTRAP 5500 mass spectrometer (Sciex, Concord, Canada) equipped with a robotic nanoflow ion source, the TriVersa NanoMate (Advion BioSciences, Ithaca, N.J.). Detection of triacylglycerols was made using neutral loss scanning in positive mode (Murphy et al., 2007). Phosphatidylcholines were analyzed in positive mode using m/z 184 (phosphocholine) as fragment ion (Brugger et al., 1997).

PKLR = assay: qPCR of target gene expression in HepG2 cells after siRNA or expression plasmid transfection; format: cell-based, human; conditions: siRNA 50 nM, 72 hours, P<0.05
Description: HepG2 cell line was purchased from ATCC and selected for subsequent genetic modification. Cells were routinely cultured in humidified incubator with 5% CO2 at 37°. Cells were maintained by RPMI 1640 medium (R2405, Sigma-Aldrich) with 10% fetal bovine serum (FBS, F7524, Sigma-Aldrich).
For downregulation of target genes, PKLR, PNPLA3, and PCSK9, RNAi experiment was performed by silencer predesigned siRNA kit (Assay ID: 53 for PKLR, 121938 for PNPLA3 and 103966 for PCSK9, Thermo Fisher Scientific, USA). According to the manufacturer's instructions, HepG2 cells were treated by specific siRNA at 50 nM of final concentration using reverse transfection on the help of Lipofectamine RNAiMAX for 72 hours. Negative Control for transfection (4390843, Thermo Fisher Scientific, USA) was selected as standard for comparison from the same company. […]
Cells were treated for experiment when they were grown to 80% confluence. […] Expressions of target genes were validated by quantitative real-time PCR (Schmittgen and Livak, 2008). […] And the relative expression of each gene was calculated by 2-ΔΔCT method described before (Schmittgen and Livak, 2008). β-actin was selected as internal reference gene for normalization.
All results of measurement were presented/shown by mean±SD and One-way ANOVA was applied for comparisons in quantitative covariates. […]

Molecule | FASN expression level (K562 cells [1]) | PKLR expression level (K562 cells [1]) | FASN expression level (HepG2 cells [2]) | PCSK9 expression level (HepG2 cells [2]) | PKLR expression level (HepG2 cells [2]) | PNPLA3 expression level (HepG2 cells [2]) | cell growth (HepG2 cells [3]) | expression of FASN in relation to expression of PKLR, PCSK9, PNPLA3 [4] | cell growth (K562 cells [5]) | decrease of total triglyceride compared to negative control (HepG2 cells [6]; after adjusting based on the phosphatidylcholines levels) | triglyceride level (HepG2 cells [6]; siRNA 72 hours vs non-targeting negative control, P<0.05) | total triglyceride adjusted based on the phosphatidylcholines levels (HepG2 cells [6]; siRNA 72 hours, negative control 555.0±51.2) | inhibitory rate of PKLR expression (down-regulation vs negative control) (PKLR) [%]
C=C1C(=O)OC(CCCCCCCC)C1C(=O)O (stereo not shown) [C75] | significantly decreased | significantly decreased | significantly decreased | significantly decreased | significantly decreased | significantly decreased | significantly decreased | interconnected | significant decrease | – | – | – | –
siRNA 53: PKLR-targeted Silencer pre-designed siRNA; sense sequence SEQ ID NO:5, antisense sequence SEQ ID NO:6 (sense GGAGAUGAUCAAGGCCGGGTT; antisense CCCGGCCUUGAUCAUCUCCTT; chemistry not given here; listed as Homo sapiens) | – | – | – | – | – | – | – | – | – | about 15% | significant decrease | 471.7±45.5 | 96
